Molecular target: ROCK2 (Homo sapiens (Human), UniProt O75116)
Assay: ROCK assay (peptide substrate phosphorylation, LABCHIP 3000 Reader)
Format: biochemical
Details: 5 μM ATP, 1.5 μM peptide substrate
Procedure: Compounds were dissolved in DMSO so that the final concentration of DMSO was <2%, and the reaction was initiated with Rho kinase variants. After incubation, the reaction was terminated by the addition of EDTA and the phosphorylated and non-phosphorylated peptides separated using a LABCHIP® 3000 Reader (Caliper Life Sciences). […] Compounds were tested in dose-response format, and the inhibition of kinase activity was calculated at each concentration of compound.

Sequence of ROCK2 (O75116 whole entry, species assumed): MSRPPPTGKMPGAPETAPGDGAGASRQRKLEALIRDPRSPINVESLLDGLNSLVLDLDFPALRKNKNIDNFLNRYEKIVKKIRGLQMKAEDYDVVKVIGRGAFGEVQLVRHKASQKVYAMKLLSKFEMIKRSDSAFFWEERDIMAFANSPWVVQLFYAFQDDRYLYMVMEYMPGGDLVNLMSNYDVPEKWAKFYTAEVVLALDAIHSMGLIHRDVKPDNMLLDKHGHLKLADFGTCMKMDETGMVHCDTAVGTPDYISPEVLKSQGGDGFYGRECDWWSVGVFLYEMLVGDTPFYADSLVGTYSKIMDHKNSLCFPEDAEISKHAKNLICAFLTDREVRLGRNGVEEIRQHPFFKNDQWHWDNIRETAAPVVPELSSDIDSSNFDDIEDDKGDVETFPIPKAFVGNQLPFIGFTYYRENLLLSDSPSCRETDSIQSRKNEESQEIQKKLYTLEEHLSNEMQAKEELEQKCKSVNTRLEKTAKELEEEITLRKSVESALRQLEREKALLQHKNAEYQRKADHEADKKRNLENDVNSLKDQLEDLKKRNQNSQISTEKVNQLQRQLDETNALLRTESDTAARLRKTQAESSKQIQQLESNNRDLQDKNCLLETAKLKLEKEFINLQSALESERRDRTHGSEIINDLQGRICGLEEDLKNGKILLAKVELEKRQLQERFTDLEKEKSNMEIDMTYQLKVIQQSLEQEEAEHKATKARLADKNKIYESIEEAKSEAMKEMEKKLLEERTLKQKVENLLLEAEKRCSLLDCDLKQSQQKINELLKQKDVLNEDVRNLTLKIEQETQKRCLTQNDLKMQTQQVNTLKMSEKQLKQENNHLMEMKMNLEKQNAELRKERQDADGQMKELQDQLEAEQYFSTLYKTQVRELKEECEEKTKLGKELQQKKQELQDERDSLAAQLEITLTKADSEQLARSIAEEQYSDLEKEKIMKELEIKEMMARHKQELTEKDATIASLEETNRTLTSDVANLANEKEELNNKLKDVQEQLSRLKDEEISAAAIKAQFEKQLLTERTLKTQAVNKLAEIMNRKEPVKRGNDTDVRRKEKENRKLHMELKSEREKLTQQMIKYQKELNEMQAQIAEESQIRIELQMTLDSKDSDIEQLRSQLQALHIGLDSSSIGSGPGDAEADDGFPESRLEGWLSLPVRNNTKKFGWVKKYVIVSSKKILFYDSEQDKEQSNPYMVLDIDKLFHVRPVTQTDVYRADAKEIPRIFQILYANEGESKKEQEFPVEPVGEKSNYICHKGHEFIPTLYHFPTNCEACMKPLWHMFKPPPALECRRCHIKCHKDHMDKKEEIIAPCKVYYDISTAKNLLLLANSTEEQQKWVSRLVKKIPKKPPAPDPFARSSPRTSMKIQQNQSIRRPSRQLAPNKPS

| SMILES | IC50 [nM] |
| --- | --- |
| COc1cc(C(=O)N2CCC(c3ccccc3)C2)ccc1-c1cn[nH]c1 (centres unmarked) [Example 2, 4-[2-methoxy-4-(3-phenyl-pyrrolidine-1-carbonyl)phenyl]-1H-pyrazole] | 355 |
| COc1cc(C(=O)N2CCC[C@H]2CO)ccc1-c1cn[nH]c1 [Example 3, [(2S)-1-[3-methoxy-4-(1H-pyrazol-4-yl)benzoyl]pyrrolidin-2-yl]methanol] | 1340 |
| COc1cc(C(=O)NC2CCc3ccccc32)ccc1-c1cn[nH]c1 (centres unmarked) [Example 5, N-(2,3-dihydro-1H-inden-1-yl)-3-methoxy-4-(1H-pyrazol-4-yl)benzamide] | 32.2 |
| COc1cc(C(=O)N2CCCC2c2ccccc2OC)ccc1-c1cn[nH]c1 (centres unmarked) [Example 6, 4-{2-methoxy-4-[2-(2-methoxyphenyl)pyrrolidine-1-carbonyl]phenyl}-1H-pyrazole] | 511 |
| COc1cc(C(=O)N2CCCC(c3ccccc3)C2)ccc1-c1cn[nH]c1 (centres unmarked) [Example 7, 1-[3-methoxy-4-(1H-pyrazol-4-yl)benzoyl]-3-phenylpiperidine] | 1430 |
| COc1cc(C(=O)N2CCCCC2c2ccccc2F)ccc1-c1cn[nH]c1 (centres unmarked) [Example 8, 2-(2-fluorophenyl)-1-[3-methoxy-4-(1H-pyrazol-4-yl)benzoyl] piperidine] | 85.8 |
| COc1cccc(C2CCCCN2C(=O)c2ccc(-c3cn[nH]c3)c(OC)c2)c1 (centres unmarked) [Example 9, 1-[3-methoxy-4-(1H-pyrazol-4-yl)benzoyl]-2-(3-methoxy-phenyl) piperidine] | 673 |
| COc1cc(C(=O)N2CCCC2c2ccc(Cl)cc2)ccc1-c1cn[nH]c1 (centres unmarked) [Example 10, 4-{4-[2-(4-chlorophenyl)pyrrolidine-1-carbonyl]-2-methoxyphenyl}-1H-pyrazole] | 114 |
| COc1cccc(C2CCCN2C(=O)c2ccc(-c3cn[nH]c3)c(OC)c2)c1 (centres unmarked) [Example 11, 4-{2-methoxy-4-[2-(3-methoxyphenyl)pyrrolidine-1-carbonyl]phenyl}-1H-pyrazole] | 1630 |
| COc1cc(C(=O)N2CCc3ccccc32)ccc1-c1cn[nH]c1 [Example 13, 1-[3-methoxy-4-(1H-pyrazol-4-yl)benzoyl]-2,3-dihydro-1H-indole] | 800 |
| COc1cc(C(=O)N2CCCC2Cc2ccccc2)ccc1-c1cn[nH]c1 (centres unmarked) [Example 14, 4-[4(2-benzyl-pyrrolidine-1-carbonyl)-2-methoxy-phenyl]-1H-pyrazole] | 183 |
| COc1cc(C(=O)N2CCCC2c2cccc(S(N)(=O)=O)c2)ccc1-c1cn[nH]c1 (centres unmarked) [Example 17, 3-{1-[3-methoxy-4-(1H-pyrazol-4-yl)benzoyl]pyrrolidin-2-yl}benzene-1-sulfonamide] | 1280 |
| COc1cc(C(=O)N2CCCC2c2ccc(F)cc2)ccc1-c1cn[nH]c1 (centres unmarked) [Example 19, 4-{4-[2-(4-fluorophenyl)pyrrolidine-1-carbonyl]-2-methoxyphenyl}-1H-pyrazole] | 41.4 |
| COc1cc(C(=O)N2CCCC2c2ccc(C(F)(F)F)cc2)ccc1-c1cn[nH]c1 (centres unmarked) [Example 22, 4-(2-methoxy-4-{2-[4-(trifluoromethyl)phenyl]pyrrolidine-1-carbonyl}phenyl)-1H-pyrazole] | 125 |
| COc1cc(C(=O)N2CCCC2c2ccc(C)cc2)ccc1-c1cn[nH]c1 (centres unmarked) [Example 23, 4-{2-methoxy-4-[2-(4-methyl-phenyl)pyrrolidine-1-carbonyl]phenyl}-1H-pyrazole] | 215 |
| COc1cc(C(=O)N2CCC[C@@H]2C(=O)OC(C)(C)C)ccc1-c1cn[nH]c1 [Example 24, tert-butyl (2R)-1-[3-methoxy-4-(1H-pyrazol-4-yl)benzoyl] pyrrolidine-2-carboxylate] | 1100 |
| COc1ccc(C2CCCN2C(=O)c2ccc(-c3cn[nH]c3)c(OC)c2)cc1 (centres unmarked) [Example 25, 4-{2-methoxy-4-[2-(4-methoxyphenyl)pyrrolidine-1-carbonyl]phenyl}-1H-pyrazole] | 331 |
| COc1cc(C(=O)N2CCCC2c2ccccc2)ccc1-c1cn[nH]c1 (centres unmarked) [Example 26, 4-[2-methoxy-4-(2-phenyl-pyrrolidine-1-carbonyl)phenyl]-1H-pyrazole] | 50.5 |
| COc1cc(C(=O)N2CCCC2c2cccc(C)c2)ccc1-c1cn[nH]c1 (centres unmarked) [Example 27, 4-{2-methoxy-4-[2-(3-methyl-phenyl)pyrrolidine-1-carbonyl]phenyl}-1H-pyrazole] | 61.4 |
| COc1cc(C(=O)N2CCCC2c2ccc3ccccc3c2)ccc1-c1cn[nH]c1 (centres unmarked) [Example 29, 4-{2-methoxy-4-[2-(naphthalen-2-yl)pyrrolidine-1-carbonyl]phenyl}-1H-pyrazole] | 68.3 |
| COc1cc(C(=O)N2CCCC2c2ccc3c(c2)OCO3)ccc1-c1cn[nH]c1 (centres unmarked) [Example 30, 4-{4-[2-(2H-1,3-benzodioxol-5-yl)pyrrolidine-1-carbonyl]-2-methoxyphenyl}-1H-pyrazole] | 75.3 |
| CCNC(=O)c1cccc(C2CCCN2C(=O)c2ccc(-c3cn[nH]c3)c(OC)c2)c1 (centres unmarked) [Example 35, N-Ethyl-3-(1-(3-methoxy-4-(1H-pyrazol-4-yl)benzoyl)pyrrolidin-2-yl)benzamide] | 4.89 |
| COc1cc(C(=O)N2CCC[C@@H]2c2cccc(C(=O)N(C)C)c2)ccc1-c1cn[nH]c1 [Example 40, 3-[(2R)-1-[3-methoxy-4-(1H-pyrazol-4-yl)benzoyl]pyrrolidin-2-yl]-N,N-dimethylbenzamide] | 725 |
| COC(=O)c1cccc([C@H]2CC(OC(C)=O)CN2C(=O)c2ccc(-c3cn[nH]c3)c(OC)c2)c1 (stereo partly drawn) [Example 43, Methyl 3-[(2R)-4-(acetyloxy)-1-[3-methoxy-4-(1H-pyrazol-4-yl)benzoyl]pyrrolidin-2-yl]benzoate] | 54.4 |
| COc1cc(C(=O)N2CC(O)C[C@@H]2c2cccc(C(=O)O)c2)ccc1-c1cn[nH]c1 (stereo partly drawn) [Example 44, 3-[(2R)-4-Hydroxy-1-[3-methoxy-4-(1H-pyrazol-4-yl)benzoyl]pyrrolidin-2-yl]benzoic acid] | 49.7 |

Continued by falling IC50, values first:

| IC50 [nM] | SMILES |
| --- | --- |
| 31.8 | COc1cccc(C2CCCN2C(=O)c2ccc(-c3cn[nH]c3)c(OC)c2)c1 (centres unmarked) [Example 4, 4-{2-methoxy-4-[2-(3-methoxyphenyl)pyrrolidine-1-carbonyl]phenyl}-1H-pyrazole] |
| 31 | COc1cc(C(=O)N2CCCC2c2cccc(Br)c2)ccc1-c1cn[nH]c1 (centres unmarked) [Example 15, 4-{4-[2-(3-bromophenyl)pyrrolidine-1-carbonyl]-2-methoxyphenyl}-1H-pyrazole] |
| 18.2 | CNC(=O)c1cccc([C@H]2CC(O)CN2C(=O)c2ccc(-c3cn[nH]c3)c(OC)c2)c1 (stereo partly drawn) [Example 46, 3-[(2R)-4-hydroxy-1-[3-methoxy-4-(1H-pyrazol-4-yl)benzoyl]pyrrolidin-2-yl]-N-methylbenzamide] |
| 15.8 | COc1cc(C(=O)N2CCCC2c2ccccc2Cl)ccc1-c1cn[nH]c1 (centres unmarked) [Example 28, 4-{4-[2-(2-chlorophenyl)pyrrolidine-1-carbonyl]-2-methoxyphenyl}-1H-pyrazole] |
| 14.7 | COc1cc(C(=O)N2CCCC2c2ccccc2F)ccc1-c1cn[nH]c1 (centres unmarked) [Example 20, 4-{4-[2-(2-fluorophenyl)pyrrolidine-1-carbonyl]-2-methoxyphenyl}-1H-pyrazole] |
| 12.6 | COc1cccc(C2CCCN2C(=O)c2ccc(-c3cn[nH]c3)c(OC)c2)c1 (centres unmarked) [Example 12, 4-{2-methoxy-4-[2-(3-methoxyphenyl)pyrrolidine-1-carbonyl]phenyl}-1H-pyrazole] |
| 11.6 | COc1cc(C(=O)N2CCC[C@@H]2c2cccc(S(C)(=O)=O)c2)ccc1-c1cn[nH]c1 [Example 31, 4-{4-[(2R)-2-(3-Methanesulfonylphenyl)pyrrolidine-1-carbonyl]-2-methoxyphenyl}-1H-pyrazole] |
| 7.29 | COc1cc(C(=O)N2CC(O)C[C@@H]2c2cccc(C(=O)NCC(C)(C)O)c2)ccc1-c1cn[nH]c1 (stereo partly drawn) [Example 47, 3-[(2R)-4-hydroxy-1-[3-methoxy-4-(1H-pyrazol-4-yl)benzoyl]pyrrolidin-2-yl]-N-(2-hydroxy-2-methylpropyl)benzamide] |
| 5.83 | COC(=O)c1cccc([C@H]2CCCN2C(=O)c2ccc(-c3cn[nH]c3)c(OC)c2)c1 [Example 32, Methyl 3-[(2R)-1-[3-methoxy-4-(1H-pyrazol-4-yl)benzoyl]pyrrolidin-2-yl]benzoate] |
| 5.53 | COc1cc(C(=O)N2CCC[C@@H]2c2cccc(C(=O)NC3CCS(=O)(=O)C3)c2)ccc1-c1cn[nH]c1 (stereo partly drawn) [Example 41, N-(1,1-dioxo-1λ^6-thiolan-3-yl)-3-[(2R)-1-[3-methoxy-4-(1H-pyrazol-4-yl)benzoyl]pyrrolidin-2-yl]benzamide] |
| 4.59 | COc1cc(C(=O)N2CCC[C@@H]2c2cccc(C(=O)NC3CC3)c2)ccc1-c1cn[nH]c1 [Example 42, N-cyclopropyl-3-[(2R)-1-[3-methoxy-4-(1H-pyrazol-4-yl)benzoyl]pyrrolidin-2-yl]benzamide] |
| 4.52 | COc1cc(C(=O)N2CCC[C@@H]2c2cccc(C(=O)NCC(C)(C)O)c2)ccc1-c1cn[nH]c1 [Example 39, N-(2-hydroxy-2-methylpropyl)-3-[(2R)-1-[3-methoxy-4-(1H-pyrazol-4-yl)benzoyl]pyrrolidin-2-yl]benzamide] |
| 3.57 | COc1cc(C(=O)N2CCCC2c2cccc(S(N)(=O)=O)c2)ccc1-c1cn[nH]c1 (centres unmarked) [Example 16, 3-{1-[3-methoxy-4-(1H-pyrazol-4-yl)benzoyl]pyrrolidin-2-yl}benzene-1-sulfonamide] |
| 2.79 | COc1cc(C(=O)N2CCCC2c2cccc(S(N)(=O)=O)c2)ccc1-c1cn[nH]c1 (centres unmarked) [Example 18, 3-{1-[3-methoxy-4-(1H-pyrazol-4-yl)benzoyl]pyrrolidin-2-yl} benzene-1-sulfonamide] |
| 2.74 | COc1cc(C(=O)N2CCCC2c2cccc(O)c2)ccc1-c1cn[nH]c1 (centres unmarked) [Example 21, 3-{1-[3-methoxy-4-(1H-pyrazol-4-yl)benzoyl]pyrrolidin-2-yl}phenol] |
| 1.28 | COc1cc(C(=O)N[C@@H]2CNC[C@H]2c2ccccc2)ccc1-c1cn[nH]c1 (racemic) [Example 70, trans-(±)-3-Methoxy-N-(4-phenylpyrrolidin-3-yl)-4-(1H-pyrazol-4-yl)benzamide] |
